# Experimental data taken from patent US8466144B2, “Muscarinic antagonists with parp and sir modulating activity as cytoprotective agents” (Proteosys AG, priority 2004, dated 2013).
# Tests used:
# [1] = tested on: neurons from D3 embryonic stem (ES) cells; experiment: Cell culture model for chemical ischemia and neuroprotection (calcium imaging of surviving neurons); assay type: cell-based, mice; settings: β-methyl-cyclodextrin or filipin
# Protocol: For all experiments, D3 embryonic stem (ES) cells derived from 129/sv mice [Okabe et al., 1996] were cultivated for 12 days, with passages on days 2, 4, 7 and 9 as described previously [Sommer et al., 2004]. Insult conditions: Cells (24-well plates) were pre-incubated with or without 20 nM EPO in fresh medium for 24 hours at 37° C. Cells were rinsed once with low K^+ solution (140 mM NaCl, 4.7 mM KCl, 1.2 mM KH2PO4, 2.5 mM CaCl2, 1.2 mM MgSO4, 11 mM glucose, 15 mM Hepes-NaOH, pH 7.35). Cells (either with or without EPO pre-incubation) were incubated for up to 45 min (37° C.) with either low K^+ solution or with glucose-free low K^+ solution supplemented with 1 mM KCN (chemical ischemia solution [Kume et al., 2002]). Vitality control to asses numbers of surviving neurons was performed by a brief stimulation with a low dose of glutamate (10 μM).
# Functional tests by calcium imaging were performed essentially as described [Sommer et al., 2004]. Briefly, cells were loaded with 2 μM of fura-2 AM in DMEM for 45 min at 37° C. in the dark. Measurements of relative changes in [Ca^2+] were made on an inverted epifluorescence microscope (Olympus IX70 S1F2) with a Polychrom IV Monochromator (Xe-lamp, USHIO). Excitation wavelengths (λ1, λ2) and the emission wavelength were 340, 380 and 510 nm, respectively. […]
# [2] = molecular target: T1, recombinant monomeric PARP-1 (Homo sapiens, UniProt P09874); experiment: PARP inhibition assay (R&D Systems); assay type: biochemical; settings: FIG. 4b
# T1 construct: purchased R&D Systems TA4669
# From the text: A PARP inhibition assay from R&D Systems was used (Cat.No. TA4669) according to instructions of the supplier.
# Under cellular conditions PARP-1 poly-ADP-ribosylates a host of nuclear proteins, including topoisomerase 1, 14-3-3 g and PARP-1 itself. Thus under cellular conditions, the self-modification of PARP-1 and dimerization are regulating its activity, moreover there is a tight interplay with PARG (poly-ADP- ribosyl-glycohydroxylase).
# [3] = tested on: 3T3 fibroblasts; experiment: LPS challenge, cell survival by Trypan Blue; assay type: cell-based; settings: LPS 100 ng/ml for 60 min
# Protocol: (§1) Cell pellets were further investigated by Western blot staining with anti Cox-2 and anti iNOS antibodies of 1D polyacrylamide gels.
# (§2) Cell survival was assessed by Trypan Blue staining.
# [4] = tested on: A 549 cells; experiment: LPS challenge, cell survival by Trypan Blue; assay type: cell-based; settings: LPS 100 ng/ml for 60 min
# Protocol: as §1, §2
# [5] = tested on: neurally differentiated V56 embryonic stem cells; experiment: LPS challenge, cell survival by Trypan Blue; assay type: cell-based; settings: LPS 100 ng/ml for 60 min
# Protocol: as §1, §2
# [6] = tested on: undifferentiated V56 embryonic stem cells; experiment: LPS challenge, cell survival by Trypan Blue; assay type: cell-based; settings: LPS 100 ng/ml for 60 min
# Protocol: as §1, §2
# [7] = tested on: PARP-1; experiment: Affinity tag enrichment from cell extracts (1D PAGE, MALDI-TOF, immunostaining); assay type: binding
# Protocol: (§3) A reactive —SCN group is introduced which binds to lysines in or near the binding site of the compound. A biotinylated linker serves for enrichment of bound protein. The synthesis is described in FIG. 1.
# (§4) The affinity reagent 11 was used to bind the target covalently from fractionations of crude cell extracts of D3 ES cells and other cell lines, subsequently the affinity purified material was analysed by 1D PAGE, immunostaining, and mass spectrometry.
# (§5) The subsequent fractionation, isolation and further analysis was performed according to published standard procedures (Sommer et al. 2004). A commercial anti-PARP antibody was used for staining Western blots. Mass spectrometry for independent identification of pirenzepine-tagged proteins was performed as described elsewhere recently (Vogt et al., 2003, Cahill et al., 2003).
# (§6) A reactive —SCN group binds to lysins in or near the binding site of the compound. A biotinylated linker serves for enrichment of bound protein. The final affinity reagent, thiocyanato-11-[2-(4-biocytinyl-piperazin-1-yl)-acetyl]-5,11-dihydro-benzo[e]pyrido [3,2-b] [1,4] diazepin-6-one (compound (11), FIG. 1), was used to bind the target covalently from fractionations of crude cell extracts of D3 embryonic stem cells, subsequently the affinity purified material was analysed by 1D PAGE (FIG. 3a), mass spectrometry and immunostaining. […]
# [8] = molecular target: T2, SIR-2 (Mus musculus, UniProt Q923E4); experiment: as above; assay type: binding
# T2 construct: endogenous in cells; host or cells: D3 embryonic stem cells / V56 embryonic stem cells (crude extract)
# T2 sequence (Q923E4 1-737): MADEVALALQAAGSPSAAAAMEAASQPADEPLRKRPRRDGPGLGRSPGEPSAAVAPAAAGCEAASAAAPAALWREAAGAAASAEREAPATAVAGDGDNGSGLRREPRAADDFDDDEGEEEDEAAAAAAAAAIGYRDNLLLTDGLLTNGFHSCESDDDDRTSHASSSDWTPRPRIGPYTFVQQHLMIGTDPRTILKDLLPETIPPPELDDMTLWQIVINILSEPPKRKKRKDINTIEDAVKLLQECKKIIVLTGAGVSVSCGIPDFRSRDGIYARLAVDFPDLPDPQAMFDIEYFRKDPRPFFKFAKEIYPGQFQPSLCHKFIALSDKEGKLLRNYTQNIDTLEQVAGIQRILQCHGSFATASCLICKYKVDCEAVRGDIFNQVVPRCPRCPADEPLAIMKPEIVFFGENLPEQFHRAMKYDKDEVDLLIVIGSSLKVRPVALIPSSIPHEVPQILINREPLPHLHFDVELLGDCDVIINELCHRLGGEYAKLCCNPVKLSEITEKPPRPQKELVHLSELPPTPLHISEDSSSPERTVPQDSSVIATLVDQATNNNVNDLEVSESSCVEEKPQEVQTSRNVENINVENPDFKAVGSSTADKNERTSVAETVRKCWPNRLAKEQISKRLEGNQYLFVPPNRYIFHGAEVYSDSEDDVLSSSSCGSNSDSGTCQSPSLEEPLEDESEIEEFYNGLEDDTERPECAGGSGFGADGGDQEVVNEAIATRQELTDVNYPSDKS
# Protocol: as §3, §4, §5, §6
# T1 sequence (P09874 whole entry): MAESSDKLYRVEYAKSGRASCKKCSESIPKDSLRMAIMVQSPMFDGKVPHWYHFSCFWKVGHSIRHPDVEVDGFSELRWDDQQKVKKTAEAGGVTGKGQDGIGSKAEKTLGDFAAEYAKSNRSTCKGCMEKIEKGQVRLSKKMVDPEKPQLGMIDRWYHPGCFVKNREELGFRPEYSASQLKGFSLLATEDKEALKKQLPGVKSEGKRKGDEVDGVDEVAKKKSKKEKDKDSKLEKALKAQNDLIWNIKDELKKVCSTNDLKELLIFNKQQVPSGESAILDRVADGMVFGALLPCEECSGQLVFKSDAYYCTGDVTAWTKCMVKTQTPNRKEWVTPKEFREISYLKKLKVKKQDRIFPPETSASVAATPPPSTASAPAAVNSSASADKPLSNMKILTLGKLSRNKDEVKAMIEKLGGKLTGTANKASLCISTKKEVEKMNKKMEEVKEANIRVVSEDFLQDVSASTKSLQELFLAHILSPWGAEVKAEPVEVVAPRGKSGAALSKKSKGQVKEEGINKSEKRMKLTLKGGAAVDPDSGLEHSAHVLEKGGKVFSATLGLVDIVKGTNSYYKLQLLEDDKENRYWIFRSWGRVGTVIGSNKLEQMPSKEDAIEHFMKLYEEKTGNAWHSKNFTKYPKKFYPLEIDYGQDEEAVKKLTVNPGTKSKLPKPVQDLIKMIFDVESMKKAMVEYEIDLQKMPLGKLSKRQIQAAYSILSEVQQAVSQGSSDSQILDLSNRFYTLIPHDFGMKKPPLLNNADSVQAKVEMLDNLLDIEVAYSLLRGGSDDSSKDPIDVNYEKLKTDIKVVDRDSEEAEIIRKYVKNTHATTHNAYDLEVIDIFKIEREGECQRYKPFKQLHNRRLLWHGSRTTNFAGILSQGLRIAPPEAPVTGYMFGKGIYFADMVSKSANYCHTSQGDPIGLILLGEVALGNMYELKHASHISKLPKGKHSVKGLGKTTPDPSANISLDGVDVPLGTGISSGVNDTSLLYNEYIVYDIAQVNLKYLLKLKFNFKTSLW
# Sequence of PARP-1 (P11103 215-1013 limits assumed): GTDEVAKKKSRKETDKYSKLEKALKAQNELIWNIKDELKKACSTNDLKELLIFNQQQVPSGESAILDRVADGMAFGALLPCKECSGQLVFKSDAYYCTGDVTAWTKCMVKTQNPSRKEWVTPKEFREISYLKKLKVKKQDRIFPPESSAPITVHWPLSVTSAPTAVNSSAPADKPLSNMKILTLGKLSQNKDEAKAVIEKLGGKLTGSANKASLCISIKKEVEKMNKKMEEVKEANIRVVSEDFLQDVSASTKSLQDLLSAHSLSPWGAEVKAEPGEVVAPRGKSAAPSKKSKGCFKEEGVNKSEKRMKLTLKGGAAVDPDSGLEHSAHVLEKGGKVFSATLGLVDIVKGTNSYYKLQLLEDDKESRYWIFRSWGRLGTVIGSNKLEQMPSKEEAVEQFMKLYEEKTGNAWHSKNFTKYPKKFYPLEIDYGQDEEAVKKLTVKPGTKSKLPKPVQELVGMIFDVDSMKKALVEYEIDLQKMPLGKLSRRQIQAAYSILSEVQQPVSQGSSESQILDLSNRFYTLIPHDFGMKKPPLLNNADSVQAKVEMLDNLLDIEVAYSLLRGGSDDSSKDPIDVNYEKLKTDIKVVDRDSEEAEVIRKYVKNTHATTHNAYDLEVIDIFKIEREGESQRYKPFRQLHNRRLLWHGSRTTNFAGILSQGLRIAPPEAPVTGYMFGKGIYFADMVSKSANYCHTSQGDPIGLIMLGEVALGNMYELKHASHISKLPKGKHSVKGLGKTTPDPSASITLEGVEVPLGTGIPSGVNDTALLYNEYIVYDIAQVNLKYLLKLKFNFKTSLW
PARP-1 inhibition (in words) [2],Molecule,neuroprotective effect in the presence of raft-disrupting conditions [1],protection from LPS challenge [3],protection from LPS challenge [4],protection from LPS challenge [5],protection from LPS challenge [6],interaction with PARP-1 [7],interaction with SIR-2 [8]
rather weak PARP-1 inhibitor,CN1CCN(CC(=O)N2c3ccccc3C(=O)Nc3cccnc32)CC1 [Pirenzepine],does not occur,protect from LPS challenge,protect from LPS challenge,protect from LPS challenge,protect from LPS challenge,,
,"thiocyanato 11-[2-(4-biocytinyl-piperazin-1-yl)-acetyl]-5,11-dihydro-benzo[e]pyrido[3,2-b][1,4]diazepin-6-one [affinity tag]",,,,,,interacts with both proteins,interacts with both proteins
